One assay addresses NR1/NR2A (NR1100) (Rattus norvegicus, UniProt P35439+Q00959). Kind of assay: cell-based.
Another assay has as its target NR1/NR2B (NR1100) (Rattus norvegicus, UniProt P35439+Q00960). Kind of assay: cell-based.
A further assay deals with NR1/NR2C (NR1100) (Rattus norvegicus, UniProt P35439+Q00961). Kind of assay: cell-based.
The target in a further assay is NR1/NR2D (NR1100) (Rattus norvegicus, UniProt P35439+Q62645). Kind of assay: cell-based.
A further assay deals with T1, NR1111/NR2B (Rattus norvegicus, UniProt P35439+Q00960).
T1 construct: expressed in transfected cells; host or cells: Xenopus oocytes
Kind of assay: NMDA receptor currents in Ba-Ringer, Xenopus oocytes, Example 3. The assay is classed as cell-based.

The test system of assay [1] is NR1100/NR2A. Kind of assay: NMDA-induced currents of NR1 splice variants, Xenopus oocytes, Example 4. The assay is classed as cell-based. Particulars: 100 μM PS. The method, then: (§1) Overnight cultures (500 ml) of transformed bacterial cells were prepared in order to grow sufficient quantities for maxiprep isolation of the plasmid CDNA. Maxipreps were done using a Sorvall RC-5B ultracentrifuge, Qiagen columns and cDNA was quantitated with spectrophotometry (OD260 and OD260/ OD280 ratio). The resulting plasmid cDNA was linearized by digestion with an appropriate restriction enzyme that cleaves distal to the cDNA insert (XhoI for NR2A or NotI for NR1100, NR1000, NR1111, NR1011, NR1101, NR1001). […] The samples were stored at −20° C. until use.
(§2) In vitro transcription was performed using the Ambion mMessage mMachine kit with T7 (NR1100, NR1000, NR1111, NR1011, NR1101, NR1001) RNA polymerase. The reaction was assembled on ice and allowed to incubate at 37° C. for 1-2 hr. The resulting mRNA was precipitated (reaction termination) using lithium chloride/5 mM EDTA solution and dissolved in RNase-free H2O. The concentration (OD260) and OD260/OD280 ratio (should be more than 1.5) was determined by spectrophotometer. The yield of mRNA was generally 15-30 μg. mRNA was stored at −80° C. until use.
(§3) Intracellular recording microelectrodes were fabricated from 100 μl borosilicate glass disposable micropipettes using a 2-step protocol on a standard horizontal Flaming-Brown micropipette puller.

A further assay concerns the target T2, NR1/NR2B (Rattus norvegicus, UniProt P35439+Q00960).
T2 construct: expressed in transfected cells; host or cells: Xenopus oocytes injected with mRNA
Kind of assay: NMDA-induced membrane currents, Xenopus oocytes, Example 7. The assay is classed as cell-based.

Assay [2] concerns the target T3, NR1011/NR2B-D Chimera (III) (Rattus norvegicus, UniProt P35439+Q00960, A556P/A573T/A605S/A700P/A704S/A794R/A827V/A830G/C588S/C838W/D557A/D591T/D676E/D715E/D716E/D769G/DEL851-864/E594R/E701D/E791M/E804D/F554Y/F580L/F677Q/F681L/F709Y/F784L/F842V/F846L/G611A/G707V/G713R/G741R/G771R/G787D/G826L/I530V/I568T/I766L/I780L/I834L/I837A/I868M/INS849[…]/K624R/K669R/K708R/L566C/L719T/L783F/M789I/N675Q/N697S/N806I/P598S/Q621E/Q662T/Q767H/Q775P/Q812K/Q845R/R593K/R682K/R693K/R712P/R742K/S539A/S570V/S599T/S633L/S678Y/S720Q/S759T/T723A/T798S/T835V/V576I/V776I).
T3 construct: expressed in transfected cells; host or cells: Xenopus oocytes
Kind of assay: NR2 chimera study, Xenopus oocytes, Example 7. Particulars: 100 μM PS; 300 μM NMDA; 50 μM Glycine. The assay is classed as cell-based. The text has this: (§4) To produce the first subunit, 96% of the cytoplasmic COOH-terminal region of the NR2B subunit (residues 870 to 1482) were replaced with the corresponding region of the NR2D subunit (residues 892 to 1323).
(§5) The chimeric receptors were generated by first introducing a series of silent restriction sites in both the NR2B and NR2D cDNA. The chimeric cDNAs were then constructed by replacing corresponding regions of one cDNA with that of the other. The silence site mutations were generated by a method involving PCR. […] This cassette was then ligated into the cDNA cut with the same two restriction enzymes.

For another assay, the target named is T4, NR1011/NR2B-D Chimera(I) (Rattus norvegicus, UniProt P35439+Q00960+Q62645).
T4 construct: expressed in transfected cells; host or cells: Xenopus oocytes
Kind of assay: NR2 chimera study, Xenopus oocytes, Example 7. The assay is classed as cell-based. Particulars: 100 μM PS; 300 μM NMDA; 50 μM Glycine.
Text: as §4, §5

For assay [3], the target named is T5, NR1011/NR2B-D chimera(IV) (Rattus norvegicus, UniProt P35439+Q62645, A747T/A861I/D811G/D828E/DEL874-885/E739D/E740D/F807L/G793D/G854A/H791Q/I800V/I813M/I830N/INS886[…]/K766R/K836Q/L790I/L804I/L808F/L850G/L858I/L870F/M815E/M890I/P736R/P799Q/Q744S/R732K/R737G/R765G/R795G/R818A/R869Q/S728A/S822T/T743L/T783S/V731G/V851A/V859T/V866F/W862C/Y733F).
T5 construct: expressed in transfected cells; host or cells: Xenopus oocytes
Kind of assay: NR2 chimera study, Xenopus oocytes, Example 7. The assay is classed as cell-based. Particulars: 100 μM PS; 300 μM NMDA; 50 μM Glycine.
Text: In the fourth chimera receptor, NR2B-DChimera (IV), the residues 727 to 892 were replaced on NR2D with residues 703 to 870 of NR2B, which contains the second extracellular domain, the fourth hydrophobic transmembrane domain and 31 residues from the C-terminal intracellular tail.
as §5

In the next assay the target is NR1001/NR2A (Rattus norvegicus, UniProt P35439+Q00959). Kind of assay: NMDA-induced currents of NR1 splice variants, Xenopus oocytes, Example 4. The assay is classed as cell-based. The arrangement: expressed in transfected cells; host or cells: Xenopus oocytes injected with NR1001 and NR2A mRNA. Particulars: NR1001/2A; 100 μM PS; 200 μM NMDA+10 μM glycine. The procedure: as §1, §2, §3

Assay [4] deals with NR1100/NR2A (Rattus norvegicus, UniProt P35439+Q00959). The description is as above. The arrangement: expressed in transfected cells; host or cells: Xenopus oocytes co-injected with NR1100 and NR2A cRNA. The assay is classed as cell-based. Particulars: NR1100/2A; 100 μM PS; 200 μM NMDA+10 μM glycine. The procedure: as §1, §2, §3
Where [5] appears, read: read-out: 3α5βS Emax (% Change).

Where “and” joins values, the source holds several entries; their conditions need not be identical. Identical values can stand only once. Counter-ions that a name gives are not always drawn.

Chain of NR1/NR2D (NR1100) (Q62645 28-1323, other chains not shown): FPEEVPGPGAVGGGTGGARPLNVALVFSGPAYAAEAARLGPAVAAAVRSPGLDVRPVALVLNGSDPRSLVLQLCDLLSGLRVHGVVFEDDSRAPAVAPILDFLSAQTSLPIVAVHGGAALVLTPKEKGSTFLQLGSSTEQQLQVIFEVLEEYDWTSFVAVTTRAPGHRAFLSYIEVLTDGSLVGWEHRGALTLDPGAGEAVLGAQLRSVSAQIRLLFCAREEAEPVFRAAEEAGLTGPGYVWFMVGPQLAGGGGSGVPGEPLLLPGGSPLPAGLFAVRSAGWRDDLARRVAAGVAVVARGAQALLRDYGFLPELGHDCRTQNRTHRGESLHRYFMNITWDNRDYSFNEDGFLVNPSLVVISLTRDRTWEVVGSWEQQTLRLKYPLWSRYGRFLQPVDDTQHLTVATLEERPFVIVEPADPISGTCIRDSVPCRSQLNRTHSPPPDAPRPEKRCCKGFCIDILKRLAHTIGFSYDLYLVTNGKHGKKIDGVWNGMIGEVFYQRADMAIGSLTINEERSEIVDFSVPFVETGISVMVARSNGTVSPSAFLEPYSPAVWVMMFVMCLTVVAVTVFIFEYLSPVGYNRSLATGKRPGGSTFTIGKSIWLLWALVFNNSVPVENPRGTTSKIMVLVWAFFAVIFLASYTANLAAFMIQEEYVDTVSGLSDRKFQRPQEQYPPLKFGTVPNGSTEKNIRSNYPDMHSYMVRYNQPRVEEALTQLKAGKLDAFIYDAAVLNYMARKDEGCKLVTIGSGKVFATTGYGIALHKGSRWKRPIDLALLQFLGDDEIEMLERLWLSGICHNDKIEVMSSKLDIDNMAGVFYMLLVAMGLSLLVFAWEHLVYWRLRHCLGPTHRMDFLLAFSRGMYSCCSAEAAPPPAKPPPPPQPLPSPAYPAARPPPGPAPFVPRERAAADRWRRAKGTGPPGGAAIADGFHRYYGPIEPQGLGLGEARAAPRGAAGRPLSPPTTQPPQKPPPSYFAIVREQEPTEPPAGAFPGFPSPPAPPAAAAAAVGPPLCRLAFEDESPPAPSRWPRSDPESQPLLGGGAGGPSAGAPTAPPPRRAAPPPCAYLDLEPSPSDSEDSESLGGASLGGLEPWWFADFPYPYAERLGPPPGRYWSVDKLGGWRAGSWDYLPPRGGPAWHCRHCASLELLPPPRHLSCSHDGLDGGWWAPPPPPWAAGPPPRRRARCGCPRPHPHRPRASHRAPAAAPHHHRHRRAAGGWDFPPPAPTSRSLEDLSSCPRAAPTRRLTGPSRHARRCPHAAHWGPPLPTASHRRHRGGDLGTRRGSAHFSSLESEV
Chain of NR1/NR2A (NR1100) (Q00959 23-1464, other chains not shown): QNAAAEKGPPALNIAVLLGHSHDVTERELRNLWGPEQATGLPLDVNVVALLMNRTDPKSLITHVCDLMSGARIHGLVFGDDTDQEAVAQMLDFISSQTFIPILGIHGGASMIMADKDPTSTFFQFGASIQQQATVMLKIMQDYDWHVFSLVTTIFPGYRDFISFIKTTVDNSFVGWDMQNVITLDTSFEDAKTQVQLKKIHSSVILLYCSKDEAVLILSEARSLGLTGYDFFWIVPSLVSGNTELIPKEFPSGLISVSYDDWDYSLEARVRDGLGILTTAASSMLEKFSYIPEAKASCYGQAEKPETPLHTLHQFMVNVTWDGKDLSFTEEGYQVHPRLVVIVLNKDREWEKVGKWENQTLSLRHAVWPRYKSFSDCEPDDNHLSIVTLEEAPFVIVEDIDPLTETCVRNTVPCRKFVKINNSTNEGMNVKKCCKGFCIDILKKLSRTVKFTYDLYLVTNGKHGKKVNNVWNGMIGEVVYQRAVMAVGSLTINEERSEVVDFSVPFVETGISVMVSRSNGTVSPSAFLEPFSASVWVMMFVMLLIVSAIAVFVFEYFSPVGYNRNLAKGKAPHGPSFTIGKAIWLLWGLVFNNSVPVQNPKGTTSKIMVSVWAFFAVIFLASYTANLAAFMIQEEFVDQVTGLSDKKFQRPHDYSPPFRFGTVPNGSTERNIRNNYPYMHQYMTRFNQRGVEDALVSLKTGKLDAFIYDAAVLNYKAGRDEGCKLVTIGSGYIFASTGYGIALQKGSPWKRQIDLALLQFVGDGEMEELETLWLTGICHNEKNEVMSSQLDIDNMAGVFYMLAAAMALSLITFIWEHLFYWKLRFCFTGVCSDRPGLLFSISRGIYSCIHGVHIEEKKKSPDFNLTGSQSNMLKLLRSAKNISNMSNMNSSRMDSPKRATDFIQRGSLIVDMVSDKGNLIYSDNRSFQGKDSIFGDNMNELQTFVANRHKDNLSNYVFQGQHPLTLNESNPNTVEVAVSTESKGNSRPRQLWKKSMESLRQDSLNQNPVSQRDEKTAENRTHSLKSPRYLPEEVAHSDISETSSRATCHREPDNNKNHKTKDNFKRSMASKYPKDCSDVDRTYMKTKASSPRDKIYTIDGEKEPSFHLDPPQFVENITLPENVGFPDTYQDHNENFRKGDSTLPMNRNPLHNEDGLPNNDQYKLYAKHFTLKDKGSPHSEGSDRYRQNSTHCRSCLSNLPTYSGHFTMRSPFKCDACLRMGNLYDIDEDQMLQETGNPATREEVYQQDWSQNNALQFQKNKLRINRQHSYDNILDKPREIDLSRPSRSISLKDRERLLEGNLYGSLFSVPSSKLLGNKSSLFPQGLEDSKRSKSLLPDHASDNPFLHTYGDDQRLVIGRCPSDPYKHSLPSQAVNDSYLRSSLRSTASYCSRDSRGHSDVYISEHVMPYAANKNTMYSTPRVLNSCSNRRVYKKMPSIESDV
Chain of NR1001/NR2A (Q00959 23-1464, other chains not shown): as above
Text for NR1/NR2B (NR1100): (§6) Plasmids containing the NR1100 (NR1G) and NR2A cDNA inserts were kindly provided by Dr. Nakanishi (Kyoto University Faculty of Medicine, Kyoto, Japan). Plasmids containing the NR2B, NR2C and NR2D cDNA inserts were kindly provided by Dr. P. Seeburg (Heidelberg University, Heidelberg, Germany). Plasmids were linearized with appropriate restriction enzyme prior to in vitro transcription using the Message Machine kit (Ambion, Inc., Austin, Tex.).
(§7) Female, oocyte-positive Xenopus laevis frogs were purchased from Xenopus I (Dexter, Mich.). […] Oocytes were injected with 50 nL of RNA solutions using an electronic microinjector (Drummond Inc., Broomall, Pa.). […] The injected oocytes were used for experiments following 1-5 days of incubation in Barth's solution at 18-20° C.
(§8) The microelectrodes were fabricated from borosilicate glass capillaries with a programmed puller (Sutter Instrument Co., Calif.). Microelectrode resistance was 1-3 MΩ_when filled with 3 M KCl.
(§9) Except where otherwise stated, oocytes were clamped at a holding potential of −70 mV during data acquisition. The membrane current was filtered at 500 Hz and sampled at 100 Hz. Drugs were applied using a gravity-driven external perfusion system. The working volume of the recording chamber was 30 μl and the rate of the perfusion was 50 μl/sec. The drug application lasted 10 sec and was followed by 60 s wash. Data acquisition and external perfusion were controlled using custom-written software implemented in the SuperScope II development environment (GW Instruments, Mass.). All experiments were performed at room temperature of 22-24° C. Peak or steady-state current measurements were normalized and expressed as a fraction of the peak or steady-state control current measurements, which were performed before and after application of every single concentration of agonists or steroids.
(§10) Concentration-response data were analyzed by nonlinear regress ion using the logistic equation Response=Emax/(1+(EC50/c)^nH), where c is concentration, Emaxis the maximum response, nHis the Hill coefficient. The data are presented as mean±SEM. EC50values are averaged as logarithms (De Lean et al., Am. J. Physiol. 235: E97-E102 (1978))±the SEM of the log EC50. […] The pooled data were simultaneously fitted to the logistic equation, either with Emax and EC50 constrained to be identical in the presence and absence of PS, or allowing one or both to vary independently. […] This was regarded as indicating a significant treatment effect of PS, but the change in EC50and Emaxwas not considered significant. […] No attempt was made to test the generally small changes in nHfor statistical significance.
Text for NR1/NR2C (NR1100): as §6, §7, §8, §9, §10
Text for NR1/NR2D (NR1100): as §6, §7, §8, §9, §10

For `CC(=O)[C@H]1CC[C@H]2[C@@H]3CC[C@@H]4C[C@H](OS(=O)(=O)O)CC[C@]4(C)[C@H]3CC[C@]12C` [3α5βS, 3α5β-pregnanolone sulfate], the half-maximal effective concentration (EC50) on NR1/NR2A (NR1100) came out at 62 µM; at NR1/NR2B (NR1100) it was 38 µM; on NR1/NR2C (NR1100) it was 12 µM; at NR1/NR2D (NR1100) it was 14 µM. Moreover, the Emax is -81 ± 5% at NR1/NR2A (NR1100) (setting [5]), -82 ± 1% at NR1/NR2B (NR1100) (setting [5]), -99 ± 2% at NR1/NR2C (NR1100) (setting [5]) and -98 ± 7% on NR1/NR2D (NR1100) (setting [5]).

Regarding pregnenolone sulfate [PS], the “PS Emax” value on NR1111/NR2B is reported as 1.20 ± 0.10. Further, the “PS nHill” value on NR1111/NR2B turned out to be 1.52 ± 0.10. In the assay on NR1100/NR2A [1], the “difference in mrc between NR1000/NR2A and NR1100/NR2A” value stood at 1.3 fold. The “potentiation of membrane current” value on NR1/NR2B (100 μM PS, […] μM NMDA, 10 μM glycine) is on record as 95±6%. The maximum potentiation at NR1/NR2B (PS 0.5 to 200 μM) came out at 119±9%. For the same compound, the “inhibition of inward current” value in [2] is given as 36.74±6.54%. For the same compound, the “potentiation of inward current” value on NR1011/NR2B-D Chimera(I) was 52.69±3.58%; in [3] it was 66.05±2.75% and 66.05±2.76%. Moreover, the “maximum relative current (MRC)” value at NR1001/NR2A was 1.73 and 1.72; at NR1100/NR2A [4], 1.73.
